From a melting point compilation (Tetko et al.; mined from patent text by program, amines drawn as free bases though some values may be those of a salt) come the findings set out here.

Structures are written as SMILES.

For `CC(CC(F)(F)CC(Cl)(CO)CO)C1CCC2C3CC=C4CC(O)CCC4(C)C3CCC12C` (centres undefined), the melting point (commonly the temperature, or range, at which the solid turns liquid) lay within 152 to 153 °C. To `O=[N+]([O-])c1cc(C(F)(F)F)cc2nc(C(F)(F)F)[nH]c12` belongs 95 to 97 °C. The value for `CCOC(=O)C1=C(C)Nc2ccccc2NC1c1cccc([N+](=O)[O-])c1` (centres undefined) was 148 to 150 °C; that for `O=CNCC1CN(c2c(F)cc3c(=O)c(C(=O)O)cn(-c4ccc(F)cc4F)c3c2F)CCO1` (centres undefined) was 230 to 233 °C. To `CCCn1c(=O)c(C(=O)OCC)c(N2CCN(C(=O)c3cccs3)CC2)c2cccnc21` belongs 92 to 96 °C; to `CCOC(C)OCc1ccccc1C(=NO)C(=O)NC` (centres undefined), 85 to 87 °C. In the case of `Cc1cc(-c2ccc(C(F)(F)F)cc2)nc(-n2cnc(-c3ccc(S(N)(=O)=O)s3)c2)n1`, the melting point was 277 °C.

Consider `Cc1cccc(C)c1C(=O)NC(C)(C)C`, for which the melting point was 134 to 136 °C. To `CNC(=O)c1ccn2c(C(=O)N3CCNCC3)c(Cc3cccc(F)c3C)c(-c3ccccc3)c2c1` belongs 205 °C; to `COc1ccc(CNc2nc(C)nc(C)c2Cl)cc1OCc1ccccc1`, 111 to 117 °C. `O=C(O)C=CC(=O)Nc1n[nH]c2ccc(Br)cc12` had a melting point of 172 °C.

`Cc1c(Br)c2cnnc(Cl)c2n1Cc1ccccc1`: the melting point lay in the range of 138 to 140 °C. The value for `CCOC(=O)C(=CNc1ccccc1[N+](=O)[O-])C(=O)OCC` was 104 to 105 °C; that for `Cc1ccc(NN)c2c1CC(C)O2` (centres undefined) was 90 to 92 °C; that for `CC(=O)N[C@@H](Cc1cn(Cc2ccccc2)cn1)C(=O)OCc1ccccc1` was 113 to 114 °C. The value for `CC(=O)Nc1sc2c(c1C(=O)c1ccco1)CCCC2` was 126 to 127 °C; that for `O=C(NCCCSc1ccncc1)c1ccccc1` was 120 to 121 °C; that for `CC(C)Oc1cc(-n2c(=O)[nH]c(CF)c(F)c2=O)c(F)cc1Cl` was 152 to 154 °C. The value for `Cc1nc2c(C#N)ncn2c(Cl)c1-c1c(F)cc(F)cc1F` was 183 °C; that for `CCC1(CC)COP(=O)(Cc2ccc([N+](=O)[O-])cc2)OC1` was 159 to 160 °C.

`Cn1c(Cn2nc(CC(=O)O)c3ccccc3c2=O)nc2ccccc21` showed a melting point of 230 °C. Regarding `CC(C)(C)c1cc(CCC(=O)O)cc2nc(-c3ccc(-c4nc5cc(CCC(=O)O)cc(C(C)(C)C)c5o4)s3)oc12`, the melting point fell in the range of 247 to 248 °C. The value for `Cc1c(OCC(F)(F)F)ccnc1CSc1nc2ccccc2n1NCCCO` was 113 to 114 °C; that for `Cc1ccc2c(c1)C(=O)c1ccccc1CO2` was 100 to 103 °C. The value for `CCCCN(C(=O)CCCCC(=O)N(CCCC)C1CC(C)(C)NC(C)(C)C1)C1CC(C)(C)NC(C)(C)C1` was 134 to 144 °C; that for `COC1CCc2[nH]c3ccccc3c2C1` (centres undefined) was 105 °C.

For `O=C(O)Cc1c(C(=O)c2cccc(-c3ccco3)c2)[nH]c2cc(Cl)ccc12`, the melting point was in the range of 246 to 249 °C. To `COCNC(=O)c1snc(Cl)c1Cl` belongs 79 to 87 °C; to `O=C(O)CC(C1CCCCC1)C1CCCCC1`, 118 to 120 °C; to `C=C(C)Cc1c(C)c2c(c(C)c1O)CCN2C=O`, 132 to 134 °C. To `CCC(CNC(=O)c1ccc(C(F)(F)F)c(NC(C)=O)c1)OC(C)=O` (centres undefined) belongs 121 °C; to `Oc1ccc(-c2ccc(OC(F)(F)F)cc2)cc1`, 140 °C. To `CC1=CC(c2ccc(C(F)(F)F)cc2)C2=C(CCCC2=O)N1` (centres undefined) belongs 116 to 118 °C; to `O=C(O)CCc1cc2cc(Cl)c(Cl)cc2n1S(=O)(=O)c1ccccc1`, 192 to 198 °C. In the case of `OCCOc1ccc(C=Cc2ncn(CC(O)(Cn3cncn3)c3ccc(F)cc3F)n2)cc1` (centres undefined), the melting point fell in the range of 152 to 155 °C. To `CCCCc1cn(-c2ccccc2Cl)c(=O)n1Cc1ccc(-c2ccccc2-c2nnn[nH]2)nc1` belongs 81 to 83 °C; to `Cc1cccc(Nc2nncc3ccccc23)c1`, 176 to 177 °C. The value for `CCOc1cc(OCCCCc2cc(-c3ccc(C(F)(F)F)cc3)no2)ccc1CCC(=O)O` was 105 to 106 °C. To `CCCCCCn1ccc(NC(C)=O)nc1=O` belongs 129 to 130 °C; to `CN(CS(C)(=O)=O)C(=O)Nc1ccc(Cl)c(Cl)c1`, 159 °C.

Regarding `Cc1nnc2n1-c1sc(C(N)=O)cc1C(c1ccccc1Cl)=NC2`, the melting point is 230 to 232 °C. To `CCOC(=O)C1C(=O)CC(C)(O)C(C(=O)OCC)C1c1cc(OC)c2oc(C)c(C)c2c1` (centres undefined) belongs 157 to 158 °C.

Regarding `CCCCCC(=O)C=P(c1ccccc1)(c1ccccc1)c1ccccc1`, the melting point is 54 to 56 °C.

Consider `CSc1ccc(CC(=O)O)cc1Cl`, for which the melting point fell in the range of 106 to 108 °C. The value for `CC(C)c1cc2c(cc1C(CC(=O)O)c1ccccc1)OCO2` (centres undefined) was 114 °C.

Take `C#CCOc1ccc(C2=NC3=CCNC(=O)C3=N2)c(OC)c1`: the melting point is 178 to 180 °C. To `CCOC(=O)c1nc2cc(C)c(C)cc2nc1Cl` belongs 109 to 111 °C; to `CC(O)c1cnc2cc(Oc3cc(-c4ccc(C(F)(F)F)cc4)ncn3)ccc2c1` (centres undefined), 156 to 157 °C.

In the case of `Cn1c(OCc2ccccc2)noc1=O`, the melting point lay within 80 to 83 °C. As to `c1ccc2c(c1)CCc1c-2noc1N1CCNCC1`, the melting point is 97 to 99 °C. The value for `CCCCNc1c2c(nc3c1cnn3CC)CCc1ccccc1C2=O` was 91 to 93 °C; that for `Nc1ccc(N2CCN(Cc3ccccc3)CC2)nc1CS(=O)(=O)c1ccccc1` was 175 to 176 °C; that for `C#CCN(C(=O)c1cn(C)cc1C(F)(F)F)c1cccc2c1C(C)CC2(C)C` (centres undefined) was 142 to 144 °C. For `Cc1c(-c2ccccc2)c(N2CC[C@H](N(C)C)C2)c2oc(N3CC(O)C3)nc2c1C#N`, the melting point lay in the range of 219 to 221 °C. The value for `COc1cn(-c2ccc(OS(=O)(=O)C(F)(F)F)cc2F)nc(-c2ccnn2-c2ccccc2)c1=O` was 108 to 110 °C; that for `CCOC(=O)N1CCN(CCCCCCNc2cc(OC)cc3c(C)ccnc23)CC1` was 59 to 60 °C. To `C=CCSc1cc(-c2ccc(C(F)(F)F)cc2)ccc1C#N` belongs 89 to 90 °C; to `O=C(O)c1nnc2ccc(NCCCN3CCC(OC(c4ccccc4)c4ccccc4)CC3)nn12`, 102 to 104 °C; to `COc1cccc(Cn2cc3c(-c4cccc(C(=O)NCCO)c4)cccc3n2)c1`, 176 to 177 °C. To `Cc1cc(C(=O)O)ccc1N1CCOCC1` belongs 220 to 221 °C; to `O=C(O)c1cc2cc(F)c(F)cc2o1`, 270 °C; to `O=S(=O)(c1ccc(F)cc1)N1CCCC1c1ccco1` (racemic), 69 °C. Consider `Cn1cc(-c2cc(-c3cnc4c(c3)CCC(=O)N4)ccn2)n(-c2ccc(C(C)(C)C#N)cc2)c1=O`, for which the melting point amounted to 284 °C. To `N#Cc1cnc2c(NC(=O)c3c(Cl)cccc3Cl)cccc2c1CO` belongs 249 to 250 °C.
